Where two headings read alike, the source gives them in different places. Blank lines part the entries; values can stand above or below the compound they belong to. Where a SMILES comes first, the peptide text is derived from it. [ ]: non-standard residue; d: D form. The star is where a group is joined. Stearoyl = CCCCCCCCCCCCCCCCCC(=O)*; Aib = CC(C)(N)C(=O)O
Assays:
human GLP-1 receptor = target: T1, human GLP-1 receptor (Homo sapiens, UniProt P43220); test: GLP-1 receptor potency assay (cAMP ALPHASCREEN, HEK293 cells stably expressing GLP-1 R); format: cell-based; conditions: cAMP response, HEK293 cells expressing human GLP-1 R
T1 construct: expressed in transfected cells
T1 sequence (P43220 24-463): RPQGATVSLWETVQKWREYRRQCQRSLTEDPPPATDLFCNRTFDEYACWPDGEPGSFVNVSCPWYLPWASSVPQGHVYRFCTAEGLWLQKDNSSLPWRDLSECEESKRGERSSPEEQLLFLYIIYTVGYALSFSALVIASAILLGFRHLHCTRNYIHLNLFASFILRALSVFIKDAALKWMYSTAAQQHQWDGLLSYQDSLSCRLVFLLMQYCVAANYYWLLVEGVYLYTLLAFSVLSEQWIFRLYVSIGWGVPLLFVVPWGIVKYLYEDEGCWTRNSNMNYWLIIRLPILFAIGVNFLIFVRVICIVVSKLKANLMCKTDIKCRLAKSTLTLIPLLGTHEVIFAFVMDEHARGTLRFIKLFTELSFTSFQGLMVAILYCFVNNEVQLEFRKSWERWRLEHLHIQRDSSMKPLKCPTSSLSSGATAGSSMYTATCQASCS
From the text: One useful in vitro assay for measuring GLP-1 and GLP-2 receptor activity is quantitation of cAMP, i.e. 3′-5′-cyclic adenosine monophosphate, which is a second messenger essential in many biological processes, and one of the most ubiquitous mechanisms for regulating cellular functions.
The cDNA encoding the human glucagon-like peptide 1 receptor (GLP-1 R) (primary accession number P43220) was cloned from the cDNA BC112126 (MGC:138331/IMAGE:8327594). The DNA encoding the GLP-1-R was amplified by PCR using primers encoding terminal restriction sites for subcloning. The 5′-end primers additionally encoded a near Kozak consensus sequence to ensure efficient translation. […] The PCR products encoding the GLP-1-R were subcloned into a mammalian expression vector containing a neomycin (G418) resistance marker. The mammalian expression vectors encoding the GLP-1-R were transfected into HEK293 cells by a standard calcium phosphate transfection method. 48 hours post-transfection, cells were seeded for limited dilution cloning and selected with 1 mg/ml G418 in the culture medium. Following 3 weeks in G418 selection clones were picked and tested in a functional GLP-1 receptor potency assay as described below.
The cAMP ALPHASCREEN® assay from Perkin Elmer was used to quantitate the cAMP response to activation of the GLP1 and GLP2 receptor, respectively. […] Data from test compounds eliciting an increase in the intracellular level of cAMP were normalized relative to the positive and negative control (vehicle) to calculate the EC50 and maximal response from the concentration response curve.

human GLP-2 receptor = target: T2, human GLP-2 receptor (Homo sapiens, UniProt O95838, D470N); test: GLP-2 receptor potency assay (cAMP ALPHASCREEN, HEK293 cells stably expressing GLP-2 R); format: cell-based; conditions: cAMP response, HEK293 cells expressing human GLP-2 R; read-out: EC50 GLP-2
T2 construct: expressed in transfected cells
T2 sequence (O95838 1-553 D470N): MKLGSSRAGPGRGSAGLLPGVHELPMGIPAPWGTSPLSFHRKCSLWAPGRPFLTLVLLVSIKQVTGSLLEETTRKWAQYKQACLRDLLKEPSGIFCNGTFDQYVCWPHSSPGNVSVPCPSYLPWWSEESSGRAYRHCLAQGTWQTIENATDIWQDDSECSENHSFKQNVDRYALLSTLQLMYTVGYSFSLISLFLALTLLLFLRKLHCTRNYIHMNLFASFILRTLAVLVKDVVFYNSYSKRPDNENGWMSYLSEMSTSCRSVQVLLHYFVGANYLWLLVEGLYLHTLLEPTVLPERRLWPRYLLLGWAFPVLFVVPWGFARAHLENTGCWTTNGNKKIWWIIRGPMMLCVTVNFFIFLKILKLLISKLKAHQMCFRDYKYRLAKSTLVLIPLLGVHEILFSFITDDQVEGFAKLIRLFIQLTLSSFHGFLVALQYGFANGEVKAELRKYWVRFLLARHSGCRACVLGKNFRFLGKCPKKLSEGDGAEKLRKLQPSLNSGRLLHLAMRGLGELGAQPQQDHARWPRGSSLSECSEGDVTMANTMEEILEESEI
Procedure, shortened: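 HEK293 clones stably transfected with the human GLP-2 receptor, selected with G418, were used. Intracellular cAMP was quantified by AlphaScreen. Responses were normalised to positive and vehicle controls, and EC50 and maximal response were taken from concentration-response curves.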

[1] = Solubility assessment (turbidity absorbance at 325 nm); format: physicochemical
Procedure, shortened: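 Peptide stock at 2 mg/ml in water at pH 2.5 diluted 1:1 into 100 mM acetate (pH 4.0, 5.0), histidine (pH 6.0, 7.0) or phosphate (pH 6.0, 7.0, 7.5) buffer. Absorbance at 280 and 325 nm read at ambient temperature (typically 25 °C), single samples (n=1).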

[2] = Chemical stability (RP-HPLC normalized purity after incubation at 40° C.); format: physicochemical; conditions: 14-day incubation, 0.2 mg/ml, normalized purity (area-%)
Procedure, shortened: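 Peptide at 0.2 mg/ml final in water adjusted to pH 6, 7, 7.5 or 9, incubated at 40° C for 14 days. Purity measured as main-peak area-% by C18 RP-HPLC (acetonitrile/TFA/water gradient, UV 220 nm) and normalized to T=0 set at 100 for each pH.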

EC50 (human GLP-1 receptor): 0.02 nM
Compound: CC[C@H](C)[C@H](NC(=O)[C@H](Cc1ccccc1)NC(=O)[C@H](CC(=O)O)NC(=O)[C@H](CCCNC(=N)N)NC(=O)[C@H](C)NC(=O)[C@H](C)NC(=O)[C@H](CCC(N)=O)NC(=O)[C@H](CCCCNC(=O)COCCOCCNC(=O)[C@H](CCCCN)NC(=O)[C@H](CCC(=O)O)NC(=O)[C@H](CCCCN)NC(=O)CC[C@H](NC(=O)CCCCCCCCCCCCCCCCCCC(=O)O)C(=O)O)NC(=O)[C@H](CC(=O)O)NC(=O)[C@H](CC(C)C)NC(=O)[C@@H](NC(=O)[C@@H](NC(=O)[C@H](C)NC(=O)[C@H](CC(C)C)NC(=O)[C@H](CCC(=O)O)NC(=O)[C@H](CO)NC(=O)[C@@H](NC(=O)[C@H](Cc1ccccc1)NC(=O)[C@@H](NC(=O)CNC(=O)[C@H](CCC(=O)O)NC(=O)C(C)(C)NC(=O)[C@@H](N)Cc1c[nH]cn1)[C@@H](C)O)[C@@H](C)O)[C@@H](C)O)[C@@H](C)CC)C(=O)N[C@@H](C)C(=O)N[C@@H](Cc1c[nH]c2ccccc12)C(=O)N[C@@H](CC(C)C)C(=O)N[C@H](C(=O)N[C@@H](CCC(N)=O)C(=O)N[C@@H](Cc1c[nH]cn1)C(=O)N[C@@H](CCCCN)C(=O)N[C@H](C(=O)N[C@H](C(=O)N[C@@H](CC(=O)O)C(=O)O)[C@@H](C)O)[C@@H](C)CC)[C@@H](C)CC [Compound 52] (HELM PEPTIDE1{H.[Aib].E.G.T.F.T.S.E.L.A.T.I.L.D.K.Q.A.A.R.D.F.I.A.W.L.I.Q.H.K.I.T.D}|PEPTIDE2{[O=C(O)CCCCCCCCCCCCCCCCCCC(=O)[*:2]].[gGlu].K.E.K.[O=C(COCCOCCN[*:1])[*:2]]}$PEPTIDE1,PEPTIDE2,16:R3-6:R2$$$V2.0)

EC50 (human GLP-1 receptor): 0.25 nM
Compound: CC[C@H](C)[C@H](NC(=O)[C@H](CC(C)C)NC(=O)[C@H](Cc1c[nH]c2ccccc12)NC(=O)[C@H](C)NC(=O)[C@@H](NC(=O)[C@H](Cc1ccccc1)NC(=O)[C@H](CC(=O)O)NC(=O)[C@H](CCCNC(=N)N)NC(=O)[C@H](C)NC(=O)[C@H](C)NC(=O)[C@H](CCC(N)=O)NC(=O)[C@H](CCC(=O)O)NC(=O)[C@H](CC(=O)O)NC(=O)[C@H](CC(C)C)NC(=O)[C@@H](NC(=O)[C@@H](NC(=O)[C@H](C)NC(=O)[C@H](CC(C)C)NC(=O)[C@H](CCC(=O)O)NC(=O)[C@H](CO)NC(=O)[C@H](CO)NC(=O)[C@H](Cc1ccccc1)NC(=O)[C@@H](NC(=O)CNC(=O)[C@H](CCC(=O)O)NC(=O)C(C)(C)NC(=O)[C@@H](N)Cc1c[nH]cn1)[C@@H](C)O)[C@@H](C)O)[C@@H](C)CC)[C@@H](C)CC)C(=O)N[C@@H](C)C(=O)N[C@@H](Cc1c[nH]cn1)C(=O)N[C@@H](CCCCN)C(=O)N[C@H](C(=O)N[C@H](C(=O)N[C@@H](CC(=O)O)C(=O)N[C@H](CCCCN)C(=O)N[C@H](CCCCN)C(=O)N[C@H](CCCCN)C(=O)N[C@H](CCCCN)C(=O)N[C@H](CCCCN)C(=O)N[C@H](CCCCNC(=O)CC[C@H](NC(=O)CCCCCCCCCCCCCCCCC(=O)O)C(=O)O)C(N)=O)[C@@H](C)O)[C@@H](C)CC [Compound 38] (HELM PEPTIDE1{H.[Aib].E.G.T.F.S.S.E.L.A.T.I.L.D.E.Q.A.A.R.D.F.I.A.W.L.I.A.H.K.I.T.D.[dK].[dK].[dK].[dK].[dK].[dK].[am]}|PEPTIDE2{[O=C(O)CCCCCCCCCCCCCCCCC(=O)[*:2]].[gGlu]}$PEPTIDE1,PEPTIDE2,39:R3-2:R2$$$V2.0)

EC50 (human GLP-1 receptor): 0.32 nM
Compound: CCCCCCCCCCCCCCCCCC(=O)NCCCC[C@H](NC(=O)[C@H](CC(=O)O)NC(=O)[C@H](CC(C)C)NC(=O)[C@@H](NC(=O)[C@@H](NC(=O)[C@H](C)NC(=O)[C@H](CC(C)C)NC(=O)[C@H](CCC(=O)O)NC(=O)[C@H](CO)NC(=O)[C@@H](NC(=O)[C@H](Cc1ccccc1)NC(=O)[C@H](CO)NC(=O)CNC(=O)[C@H](CCC(=O)O)NC(=O)C(C)(C)NC(=O)[C@@H](N)Cc1c[nH]cn1)[C@@H](C)O)[C@@H](C)O)[C@@H](C)CC)C(=O)N[C@@H](CCC(N)=O)C(=O)N[C@@H](C)C(=O)N[C@@H](C)C(=O)N[C@@H](CCCNC(=N)N)C(=O)N[C@@H](CC(=O)O)C(=O)N[C@@H](Cc1ccccc1)C(=O)N[C@H](C(=O)N[C@@H](C)C(=O)N[C@@H](Cc1c[nH]c2ccccc12)C(=O)N[C@@H](CC(C)C)C(=O)N[C@H](C(=O)N[C@@H](CCC(N)=O)C(=O)N[C@@H](Cc1ccc(O)cc1)C(=O)N[C@@H](CCCCN)C(=O)N[C@H](C(=O)N[C@H](C(=O)N[C@@H](CC(=O)O)C(=O)O)[C@@H](C)O)[C@@H](C)CC)[C@@H](C)CC)[C@@H](C)CC [Compound 36] (H-H[Aib]EGSFTSELATILDK(Stearoyl)QAARDFIAWLIQYKITD-OH)

EC50 (human GLP-2 receptor): 0.2 nM | solubility ([1]; 100 mM acetate buffer pH 4.0, ambient temperature, read-out: Solubility Acetate buffer pH 4): < 1000 µg/mL | solubility ([1]; 100 mM acetate buffer pH 5.0, ambient temperature, read-out: Solubility Acetate buffer pH 5): < 1000 µg/mL | solubility ([1]; 100 mM histidine buffer pH 6.0, ambient temperature, read-out: Solubility Histidine buffer pH 6): ≥ 1000 µg/mL | solubility ([1]; 100 mM histidine buffer pH 7.0, ambient temperature, read-out: Solubility Histidine buffer pH 7): ≥ 1000 µg/mL | solubility ([1]; 100 mM phosphate buffer pH 6.0, ambient temperature, read-out: Solubility Phosphate buffer pH 6): ≥ 1000 µg/mL | solubility ([1]; 100 mM phosphate buffer pH 7.0, ambient temperature, read-out: Solubility Phosphate buffer pH 7): ≥ 1000 µg/mL | solubility ([1]; 100 mM phosphate buffer pH 7.5, ambient temperature, read-out: Solubility Phosphate buffer pH 7.5): ≥ 1000 µg/mL | pH 6 normalized stability ([2]; pH 6, 40° C.): A (>90% normalised stability) | pH 7 normalized stability ([2]; pH 7, 40° C.): B (>80% stability)
Compound: CC[C@H](C)[C@H](NC(=O)[C@H](CC(C)C)NC(=O)[C@H](Cc1c[nH]c2ccccc12)NC(=O)[C@H](C)NC(=O)[C@@H](NC(=O)[C@H](Cc1ccccc1)NC(=O)[C@H](CC(=O)O)NC(=O)[C@H](CCCNC(=N)N)NC(=O)[C@H](C)NC(=O)[C@H](C)NC(=O)[C@H](CCC(N)=O)NC(=O)[C@H](CCCCNC(=O)CC[C@H](NC(=O)CCCCCCCCCCCCCCCCC(=O)O)C(=O)O)NC(=O)[C@H](CC(=O)O)NC(=O)[C@H](CC(C)C)NC(=O)[C@@H](NC(=O)[C@@H](NC(=O)[C@H](C)NC(=O)[C@H](CC(C)C)NC(=O)[C@H](CCC(=O)O)NC(=O)[C@H](CO)NC(=O)[C@@H](NC(=O)[C@H](Cc1ccccc1)NC(=O)[C@H](CO)NC(=O)CNC(=O)[C@H](CCC(=O)O)NC(=O)C(C)(C)NC(=O)[C@@H](N)Cc1c[nH]cn1)[C@@H](C)O)[C@@H](C)O)[C@@H](C)CC)[C@@H](C)CC)C(=O)N[C@@H](C)C(=O)N[C@@H](Cc1c[nH]cn1)C(=O)N[C@@H](CCCCN)C(=O)N[C@H](C(=O)N[C@H](C(=O)N[C@@H](CC(=O)O)C(=O)O)[C@@H](C)O)[C@@H](C)CC [Compound 22] (HELM PEPTIDE1{H.[Aib].E.G.S.F.T.S.E.L.A.T.I.L.D.K.Q.A.A.R.D.F.I.A.W.L.I.A.H.K.I.T.D}|PEPTIDE2{[O=C(O)CCCCCCCCCCCCCCCCC(=O)[*:2]].[gGlu]}$PEPTIDE1,PEPTIDE2,16:R3-2:R2$$$V2.0)

From US11395847B2, “Acylated GLP-1/GLP-2 dual agonists” (Zealand Pharma A/S, priority 2016, dated 2022)
